Measured values reported in ChEMBL document CHEMBL5465560, “Selectivity Literature for EUbOPEN Chemogenomic Library” (2024).

Assays:
[1] = target: T1, Cyclin-dependent kinase-like 5 (Homo sapiens) (UniProt O76039); assay: Selectivity interaction (KinomeScan (DiscoverX)) EUB0000092b CDKL5; conditions: at 10 µM
T1 sequence (whole entry): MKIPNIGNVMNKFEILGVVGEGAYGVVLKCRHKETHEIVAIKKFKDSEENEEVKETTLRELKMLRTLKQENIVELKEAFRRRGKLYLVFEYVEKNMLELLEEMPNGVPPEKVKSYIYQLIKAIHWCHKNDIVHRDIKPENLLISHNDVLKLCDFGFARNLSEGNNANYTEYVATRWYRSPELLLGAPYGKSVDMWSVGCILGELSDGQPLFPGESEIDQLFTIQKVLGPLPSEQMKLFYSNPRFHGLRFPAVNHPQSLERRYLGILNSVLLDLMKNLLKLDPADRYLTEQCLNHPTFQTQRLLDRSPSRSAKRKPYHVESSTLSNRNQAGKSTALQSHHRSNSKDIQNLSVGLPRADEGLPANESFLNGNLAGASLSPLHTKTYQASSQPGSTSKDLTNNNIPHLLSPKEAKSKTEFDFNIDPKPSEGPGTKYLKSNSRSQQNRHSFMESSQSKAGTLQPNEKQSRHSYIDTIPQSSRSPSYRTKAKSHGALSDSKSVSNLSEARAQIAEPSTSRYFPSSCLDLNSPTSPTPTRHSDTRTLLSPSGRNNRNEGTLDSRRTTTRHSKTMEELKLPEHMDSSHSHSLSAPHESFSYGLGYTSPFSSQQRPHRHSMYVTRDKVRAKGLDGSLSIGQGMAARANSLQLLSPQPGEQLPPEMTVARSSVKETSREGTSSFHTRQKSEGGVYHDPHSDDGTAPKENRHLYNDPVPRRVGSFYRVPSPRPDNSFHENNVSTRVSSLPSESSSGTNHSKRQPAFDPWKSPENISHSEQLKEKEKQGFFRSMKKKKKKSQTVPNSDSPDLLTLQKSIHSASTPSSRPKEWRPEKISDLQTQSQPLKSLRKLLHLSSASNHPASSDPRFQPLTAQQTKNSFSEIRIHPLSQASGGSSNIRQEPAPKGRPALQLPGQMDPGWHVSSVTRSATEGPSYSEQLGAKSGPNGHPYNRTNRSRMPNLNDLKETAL

[2] = target: Serine/threonine-protein kinase WNK1 (Homo sapiens) (UniProt Q9H4A3); assay: Selectivity interaction (ActivX KiNativ screen (kinase selectivity in THP-1 cell lysates)) EUB0000639a WNK1; format: subcellular; conditions: lysate
Chain of Serine/threonine-protein kinase WNK1 (Homo sapiens) (Q9H4A3 whole entry, looked up): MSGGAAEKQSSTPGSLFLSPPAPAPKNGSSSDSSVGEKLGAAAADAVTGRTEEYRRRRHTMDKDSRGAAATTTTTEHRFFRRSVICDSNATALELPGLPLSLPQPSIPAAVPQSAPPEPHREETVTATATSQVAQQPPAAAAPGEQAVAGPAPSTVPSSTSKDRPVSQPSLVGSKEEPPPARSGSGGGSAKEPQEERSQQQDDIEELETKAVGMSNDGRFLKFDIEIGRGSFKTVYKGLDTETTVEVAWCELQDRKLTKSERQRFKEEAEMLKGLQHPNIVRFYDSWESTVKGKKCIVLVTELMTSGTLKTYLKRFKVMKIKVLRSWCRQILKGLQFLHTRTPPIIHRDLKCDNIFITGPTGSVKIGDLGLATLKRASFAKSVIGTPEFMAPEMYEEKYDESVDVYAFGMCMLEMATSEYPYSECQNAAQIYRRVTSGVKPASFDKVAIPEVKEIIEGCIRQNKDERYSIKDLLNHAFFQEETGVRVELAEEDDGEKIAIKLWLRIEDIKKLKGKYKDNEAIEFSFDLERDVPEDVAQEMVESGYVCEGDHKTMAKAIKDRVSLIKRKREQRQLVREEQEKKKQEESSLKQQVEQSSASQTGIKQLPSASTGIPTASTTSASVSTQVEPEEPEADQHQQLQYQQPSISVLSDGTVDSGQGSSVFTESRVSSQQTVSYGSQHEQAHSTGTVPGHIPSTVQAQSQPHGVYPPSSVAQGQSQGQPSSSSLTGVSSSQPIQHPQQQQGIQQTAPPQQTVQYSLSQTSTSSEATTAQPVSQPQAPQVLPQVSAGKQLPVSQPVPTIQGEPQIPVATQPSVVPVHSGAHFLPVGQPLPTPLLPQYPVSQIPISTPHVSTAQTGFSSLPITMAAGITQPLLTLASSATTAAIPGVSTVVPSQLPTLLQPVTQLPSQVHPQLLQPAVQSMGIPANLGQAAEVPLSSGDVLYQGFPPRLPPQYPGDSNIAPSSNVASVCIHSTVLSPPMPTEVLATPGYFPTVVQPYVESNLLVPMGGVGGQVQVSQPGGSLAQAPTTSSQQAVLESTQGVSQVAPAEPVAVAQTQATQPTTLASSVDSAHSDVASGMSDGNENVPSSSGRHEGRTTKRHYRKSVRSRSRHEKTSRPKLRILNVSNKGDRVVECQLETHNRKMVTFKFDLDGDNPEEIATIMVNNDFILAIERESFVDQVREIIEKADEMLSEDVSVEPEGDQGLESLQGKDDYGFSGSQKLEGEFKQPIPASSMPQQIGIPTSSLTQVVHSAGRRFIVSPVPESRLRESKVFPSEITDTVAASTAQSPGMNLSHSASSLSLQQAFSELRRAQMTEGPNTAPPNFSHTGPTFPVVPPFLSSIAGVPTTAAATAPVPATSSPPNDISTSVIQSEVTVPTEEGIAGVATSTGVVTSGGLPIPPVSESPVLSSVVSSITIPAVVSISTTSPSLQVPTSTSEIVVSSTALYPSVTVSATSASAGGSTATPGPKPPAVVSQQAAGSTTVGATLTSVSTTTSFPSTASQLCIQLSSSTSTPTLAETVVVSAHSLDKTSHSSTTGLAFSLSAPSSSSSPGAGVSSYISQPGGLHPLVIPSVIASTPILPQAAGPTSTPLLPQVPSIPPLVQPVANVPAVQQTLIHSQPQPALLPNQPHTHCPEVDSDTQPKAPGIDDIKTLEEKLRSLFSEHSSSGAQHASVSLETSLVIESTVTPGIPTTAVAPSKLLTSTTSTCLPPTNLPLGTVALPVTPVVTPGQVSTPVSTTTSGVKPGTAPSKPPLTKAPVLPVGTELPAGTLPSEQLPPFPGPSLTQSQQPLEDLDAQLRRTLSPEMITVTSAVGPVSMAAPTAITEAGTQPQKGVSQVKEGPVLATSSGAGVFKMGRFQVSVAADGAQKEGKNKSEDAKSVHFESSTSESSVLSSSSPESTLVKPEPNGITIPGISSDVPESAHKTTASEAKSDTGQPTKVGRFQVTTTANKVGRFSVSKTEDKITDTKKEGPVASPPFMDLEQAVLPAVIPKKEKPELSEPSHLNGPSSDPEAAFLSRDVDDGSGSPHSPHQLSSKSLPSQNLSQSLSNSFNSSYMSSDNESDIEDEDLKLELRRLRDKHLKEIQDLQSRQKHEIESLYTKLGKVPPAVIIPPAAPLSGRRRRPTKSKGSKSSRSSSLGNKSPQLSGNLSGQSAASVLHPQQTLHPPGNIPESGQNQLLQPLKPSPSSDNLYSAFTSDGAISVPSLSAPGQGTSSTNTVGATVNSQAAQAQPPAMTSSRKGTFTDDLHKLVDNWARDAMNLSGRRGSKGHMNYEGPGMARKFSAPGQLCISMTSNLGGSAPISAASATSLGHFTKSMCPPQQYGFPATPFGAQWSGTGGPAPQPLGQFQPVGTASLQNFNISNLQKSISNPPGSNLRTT

[3] = target: T2, Tyrosine-protein kinase TXK (Homo sapiens) (UniProt P42681); assay: Selectivity interaction (Kinase panel (Invitrogen)) EUB0000639a TXK; conditions: at 200 nM
T2 sequence (whole entry): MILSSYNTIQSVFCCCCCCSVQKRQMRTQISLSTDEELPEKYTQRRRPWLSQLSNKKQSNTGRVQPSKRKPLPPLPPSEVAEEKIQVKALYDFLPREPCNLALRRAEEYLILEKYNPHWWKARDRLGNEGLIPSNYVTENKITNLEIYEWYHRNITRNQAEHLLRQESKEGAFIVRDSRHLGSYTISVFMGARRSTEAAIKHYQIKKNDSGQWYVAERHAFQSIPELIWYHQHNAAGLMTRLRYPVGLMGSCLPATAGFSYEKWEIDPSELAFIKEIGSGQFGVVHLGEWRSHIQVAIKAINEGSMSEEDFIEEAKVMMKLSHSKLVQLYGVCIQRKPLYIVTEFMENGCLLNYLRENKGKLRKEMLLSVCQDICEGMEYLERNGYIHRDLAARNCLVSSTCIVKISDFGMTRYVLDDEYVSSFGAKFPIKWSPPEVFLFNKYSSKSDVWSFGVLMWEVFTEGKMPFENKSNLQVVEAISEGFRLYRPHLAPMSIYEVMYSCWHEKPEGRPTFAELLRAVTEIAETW

[4] = target: T3, Serine/threonine-protein kinase DCLK2 (Homo sapiens) (UniProt Q8N568); assay: Selectivity interaction (KinomeScan (DiscoverX)) EUB0000045b DCLK2
T3 sequence (whole entry): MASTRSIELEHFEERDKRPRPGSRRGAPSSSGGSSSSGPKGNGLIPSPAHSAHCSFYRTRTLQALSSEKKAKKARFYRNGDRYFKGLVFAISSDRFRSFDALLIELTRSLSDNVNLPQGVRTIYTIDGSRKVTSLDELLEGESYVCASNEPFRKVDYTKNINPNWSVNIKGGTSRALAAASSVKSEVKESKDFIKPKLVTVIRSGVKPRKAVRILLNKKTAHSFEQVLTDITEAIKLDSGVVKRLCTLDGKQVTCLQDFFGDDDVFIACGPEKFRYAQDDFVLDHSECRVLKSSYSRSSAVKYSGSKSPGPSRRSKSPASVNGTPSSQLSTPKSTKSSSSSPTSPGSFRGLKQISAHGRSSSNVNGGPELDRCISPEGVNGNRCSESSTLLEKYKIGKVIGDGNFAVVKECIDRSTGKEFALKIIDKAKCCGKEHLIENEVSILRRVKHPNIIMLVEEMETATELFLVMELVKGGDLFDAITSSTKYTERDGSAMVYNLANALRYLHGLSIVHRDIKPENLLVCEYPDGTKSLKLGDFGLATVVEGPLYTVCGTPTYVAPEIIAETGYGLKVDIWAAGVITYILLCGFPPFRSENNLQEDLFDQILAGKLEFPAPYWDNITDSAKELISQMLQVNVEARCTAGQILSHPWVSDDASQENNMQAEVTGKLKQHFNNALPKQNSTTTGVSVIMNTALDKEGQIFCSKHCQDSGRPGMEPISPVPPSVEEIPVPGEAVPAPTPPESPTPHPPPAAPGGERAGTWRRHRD

CCC(=O)N1CCN(c2ccc(-n3c(=O)ccc4cnc5ccc(-c6cnc7ccccc7c6)cc5c43)cc2C(F)(F)F)CC1
% of control [1]: 100%

CC[C@@H]1[C@H](F)C(=O)N[C@@H]1COc1nccc2cc(C(N)=O)c(OC)cc12 [ZIMLOVISERTIB]
% of inhibition ([2]; at 0.01 µM): 10.1% | % of inhibition ([2]; at 0.04 µM): 23.3% | % of inhibition ([2]; at 0.2 µM): 9.7% | % of inhibition ([2]; at 1 µM): 3.1% | % of inhibition ([2]; at 5 µM): 3% | % of inhibition [3]: 9.25%

C=CC(=O)Nc1cc(-n2c(=O)ccc3cnc4ccc(-c5ccc(NS(C)(=O)=O)cc5)cc4c32)ccc1C
% of control ([4]; at 1 µM): 100% | % of control ([4]; at 10 µM): 100%
